We go through 17 compounds from PMC12452633 (RSC Medicinal Chemistry, 2025).

One assay concerns the target Ku70/80 (Homo sapiens, UniProt P12956+P13010). Kind of assay: Ku–DNA binding EMSA. The note with it: for IC50: Ku70/80 (IC50), purified Ku70/80, direct DNA binding activity by EMSA. On the technique in general: Mobility shift assays separate free from complexed probe on a gel.
The target of another assay is DNA-PK (Homo sapiens, UniProt P12956+P13010). Put plainly: DNA-PK phosphoryl-transferase catalytic. Type of assay: biochemical.
Chain of DNA-PK (P12956 whole entry): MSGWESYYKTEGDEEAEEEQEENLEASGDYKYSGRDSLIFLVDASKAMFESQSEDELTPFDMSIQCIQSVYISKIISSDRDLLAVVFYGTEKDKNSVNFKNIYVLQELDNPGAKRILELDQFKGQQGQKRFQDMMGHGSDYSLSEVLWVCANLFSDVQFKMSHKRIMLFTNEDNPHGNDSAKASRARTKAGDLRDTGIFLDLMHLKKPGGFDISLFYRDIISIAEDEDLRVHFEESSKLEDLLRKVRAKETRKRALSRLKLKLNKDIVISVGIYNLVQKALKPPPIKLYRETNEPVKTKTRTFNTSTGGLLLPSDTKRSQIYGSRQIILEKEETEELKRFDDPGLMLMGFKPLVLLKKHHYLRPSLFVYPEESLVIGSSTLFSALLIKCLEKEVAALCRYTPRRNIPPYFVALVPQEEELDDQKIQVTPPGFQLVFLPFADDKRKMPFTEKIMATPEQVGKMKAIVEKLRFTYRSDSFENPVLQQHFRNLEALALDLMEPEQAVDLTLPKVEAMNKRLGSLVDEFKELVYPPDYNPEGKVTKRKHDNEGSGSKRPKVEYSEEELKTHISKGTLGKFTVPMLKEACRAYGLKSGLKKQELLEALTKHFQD
Chain of DNA-PK (P13010 whole entry): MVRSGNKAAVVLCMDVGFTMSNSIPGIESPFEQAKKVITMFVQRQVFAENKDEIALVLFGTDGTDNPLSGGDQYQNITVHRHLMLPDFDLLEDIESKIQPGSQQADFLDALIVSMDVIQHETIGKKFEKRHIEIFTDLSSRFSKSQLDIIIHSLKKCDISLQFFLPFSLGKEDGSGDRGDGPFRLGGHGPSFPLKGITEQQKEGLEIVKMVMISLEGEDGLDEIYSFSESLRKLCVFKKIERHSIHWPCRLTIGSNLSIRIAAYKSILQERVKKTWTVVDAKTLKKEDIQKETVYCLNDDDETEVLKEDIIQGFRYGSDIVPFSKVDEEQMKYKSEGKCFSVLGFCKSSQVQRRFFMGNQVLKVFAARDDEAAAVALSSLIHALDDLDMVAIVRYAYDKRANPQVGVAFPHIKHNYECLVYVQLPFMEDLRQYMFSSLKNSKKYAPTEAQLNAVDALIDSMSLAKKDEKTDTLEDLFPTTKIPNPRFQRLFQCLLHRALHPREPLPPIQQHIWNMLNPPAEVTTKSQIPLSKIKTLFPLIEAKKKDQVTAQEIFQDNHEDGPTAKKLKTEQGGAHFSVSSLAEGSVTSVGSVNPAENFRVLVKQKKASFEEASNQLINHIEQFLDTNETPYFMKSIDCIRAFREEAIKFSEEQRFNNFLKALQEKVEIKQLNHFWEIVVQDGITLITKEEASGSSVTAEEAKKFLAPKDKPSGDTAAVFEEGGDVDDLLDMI
[1] abbreviates: CF3 in place of CH3 on pyrazolone ring.

Chain of Ku70/80 (P12956 whole entry): as the sequence (P12956 whole entry) above
Chain of Ku70/80 (P13010 whole entry): as the sequence (P13010 whole entry) above

Take `COc1cccc(CNC(=O)c2cc(-c3ccc(CC4C(=O)N(c5ccc(C(=O)O)cc5)N=C4C)o3)ccc2Cl)c1` (stereo not drawn) [Compound 56, 4-(4-((5-(4-Chloro-3-((3-methoxybenzyl)carbamoyl)phenyl)furan-2-yl)methyl)-3-methyl-5-oxo-4,5-dihydro-1H-pyrazol-1-yl)benzoic acid]: the IC50 on Ku70/80 came out at 12.4 ± 3.8 µM; against DNA-PK, 0.49 ± 0.08 µM.
The like results for `CC1=NN(c2cccc(C(=O)O)c2)C(=O)/C1=C\c1ccc(-c2ccc(Cl)c(C(=O)NCc3ccc(F)cc3)c2)s1` [Compound 43, (Z)-3-(4-((5-(4-Chloro-3-((4-fluorobenzyl)carbamoyl)phenyl)thiophen-2-yl)methylene)-3-methyl-5-oxo-4,5-dihydro-1H-pyrazol-1-yl)benzoic acid] were, in that order, 10.1 ± 1.4 µM and 3.24 µM.
Consider `O=C(O)c1cccc(N2N=C(C(F)(F)F)/C(=C/c3ccc(-c4ccc(Cl)c(C(=O)NCC5CC5)c4)o3)C2=O)c1` [Compound 51, (Z)-3-(4-((5-(4-Chloro-3-((cyclopropylmethyl)carbamoyl)phenyl)furan-2-yl)methylene)-5-oxo-3-(trifluoromethyl)-4,5-dihydro-1H-pyrazol-1-yl)benzoic acid], for which the IC50 at Ku70/80 stood at 11.4 ± 8.26 µM; against DNA-PK it was 0.35 µM.
Taken in the same sequence, the figures for `COc1cccc(NC(=O)c2cc(-c3ccc(/C=C4\C(=O)N(c5cccc(C(=O)O)c5)N=C4C)[nH]3)ccc2Cl)c1` [Compound 44, (Z)-3-(4-((5-(4-Chloro-3-((3-methoxyphenyl)carbamoyl)phenyl)-1H-pyrrol-2-yl)methylene)-3-methyl-5-oxo-4,5-dihydro-1H-pyrazol-1-yl)benzoic acid] were 9.77 ± 4.16 µM and 1.57 ± 0.73 µM.
Taken in the same sequence, the figures for `CC1=NN(c2ccc(C(=O)O)cc2)C(=O)/C1=C\c1ccc(-c2ccc(Cl)c(C(=O)NCc3ccccc3)c2)o1` [Compound 48, (Z)-4-(4-((5-(3-(Benzylcarbamoyl)-4-chlorophenyl)furan-2-yl)methylene)-3-methyl-5-oxo-4,5-dihydro-1H-pyrazol-1-yl)benzoic acid] were 22.4 ± 4.19 µM and 0.48 ± 0.016 µM.
The like results for `COc1ccc(NC(=O)c2cc(-c3ccc(CC4C(=O)N(c5cccc(C(=O)O)c5)N=C4C)o3)ccc2Cl)cc1OC` (stereo not drawn) [Compound 54, 3-(4-((5-(4-Chloro-3-((3,4-dimethoxyphenyl)carbamoyl)phenyl)furan-2-yl)methyl)-3-methyl-5-oxo-4,5-dihydro-1H-pyrazol-1-yl)benzoic acid] were, in that order, 9.97 ± 0.4 µM and 1.12 ± 0.17 µM.
For `CC1=NN(c2ccc(S(N)(=O)=O)cc2)C(=O)/C1=C\c1ccc(-c2ccc(Cl)c(C(=O)NCc3ccc(F)cc3)c2)o1` [Compound 69, (Z)-2-Chloro-N-(4-fluorobenzyl)-5-(5-((3-methyl-5-oxo-1-(4-sulfamoylphenyl)-1,5-dihydro-4H-pyrazol-4-ylidene)methyl)furan-2-yl)benzamide], the IC50 at Ku70/80 worked out at 20.7 ± 1.84 µM; at DNA-PK it was 1.53 ± 0.22 µM.
For `COc1cccc(NC(=O)c2cc(-c3ccc(CC4C(=O)N(c5ccc(S(N)(=O)=O)cc5)N=C4C)o3)ccc2Cl)c1` (stereo not drawn) [Compound 70, 2-chloro-N-(3-methoxyphenyl)-5-(5-((3-methyl-5-oxo-1-(4-sulfamoylphenyl)-4,5-dihydro-1H-pyrazol-4-yl)methyl)furan-2-yl)benzamide], the IC50 on Ku70/80 amounted to 7.86 ± 4.4 µM; on DNA-PK, 0.57 ± 0.12 µM. Besides, at Ku70/80 (compared with compound 67), the “increase in Ku inhibitory activity” value is 1–2.5 fold. The “increase in DNA-PK activity” value on DNA-PK (compared with compound 67) is given as 1–2.5 fold.
As for `COc1cccc(NC(=O)c2cc(-c3ccc(/C=C4\C(=O)N(c5cccc(C(=O)O)c5)N=C4C(F)(F)F)o3)ccc2Cl)c1` [Compound 50, (Z)-3-(4-((5-(4-Chloro-3-((3-methoxyphenyl)carbamoyl)phenyl)furan-2-yl)methylene)-5-oxo-3-(trifluoromethyl)-4,5-dihydro-1H-pyrazol-1-yl)benzoic acid], the “increase in Ku inhibitory activity” value on Ku70/80 (setting [1]) is listed as 2 fold. At Ku70/80, this compound yielded an IC50 of 3.36 ± 0.52 µM. Further, at DNA-PK (setting [1]), the “increase in DNA-PK inhibitory activity” value is recorded as ~20 fold.
`O=C(O)c1cccc(N2N=C(C(F)(F)F)C(Cc3ccc(-c4ccc(Cl)c(C(=O)NCC5CC5)c4)o3)C2=O)c1` (stereo not drawn) [Compound 62, 3-(4-((5-(4-Chloro-3-((cyclopropylmethyl)carbamoyl)phenyl)furan-2-yl)methyl)-5-oxo-3-(trifluoromethyl)-4,5-dihydro-1H-pyrazol-1-yl)benzoic acid]: the IC50 at Ku70/80 was 14.2 ± 0.21 µM.
On to `COc1cccc(NC(=O)c2cc(-c3ccc(/C=C4\C(=O)N(c5ccc(S(N)(=O)=O)cc5)N=C4C)o3)ccc2Cl)c1` [Compound 67, (Z)-2-Chloro-N-(3-methoxyphenyl)-5-(5-((3-methyl-5-oxo-1-(4-sulfamoylphenyl)-1,5-dihydro-4H-pyrazol-4-ylidene)methyl)furan-2-yl)benzamide], for which the IC50 was 11.3 ± 2.16 µM at Ku70/80 and 1.41 ± 0.27 µM against DNA-PK.
Turning to `CC1=NN(c2ccc(S(N)(=O)=O)cc2)C(=O)/C1=C\c1ccc(-c2ccc(Cl)c(C(=O)NCC3CC3)c2)o1` [Compound 68, (Z)-2-Chloro-N-(cyclopropylmethyl)-5-(5-((3-methyl-5-oxo-1-(4-sulfamoylphenyl)-1,5-dihydro-4H-pyrazol-4-ylidene)methyl)furan-2-yl)benzamide], the IC50 at Ku70/80 was > 25 µM.
At Ku70/80, `O=C(O)c1cccc(N2N=C(C(F)(F)F)/C(=C/c3ccc(-c4ccc(Cl)c(C(=O)O)c4)o3)C2=O)c1` [Compound 16, (Z)-5-(5-((1-(3-carboxyphenyl)-5-oxo-3-(trifluoromethyl)-1,5-dihydro-4H-pyrazol-4-ylidene)methyl)furan-2-yl)-2-chlorobenzoic acid] gave an IC50 of 16.4 ± 3.94 µM.
As for `CC1=NN(c2cccc(C(=O)O)c2)C(=O)/C1=C\c1ccc(-c2ccc(Cl)c(C(=O)Nc3cccc(OC(F)(F)F)c3)c2)[nH]1` [Compound 45, (Z)-3-(4-((5-(4-Chloro-3-((3-(trifluoromethoxy)phenyl)carbamoyl)phenyl)-1H-pyrrol-2-yl)methylene)-3-methyl-5-oxo-4,5-dihydro-1H-pyrazol-1-yl)benzoic acid], the IC50 on Ku70/80 is 6.9 ± 1 µM; at DNA-PK it was 0.53 ± 0.18 µM.
The like results for `COc1cccc(CNC(=O)c2cc(-c3ccc(/C=C4\C(=O)N(c5ccc(C(=O)O)cc5)N=C4C)o3)ccc2Cl)c1` [Compound 47, (Z)-4-(4-((5-(4-Chloro-3-((3-methoxybenzyl)carbamoyl)phenyl)furan-2-yl)methylene)-3-methyl-5-oxo-4,5-dihydro-1H-pyrazol-1-yl)benzoic acid] were, in that order, > 25 µM and 0.48 ± 0.048 µM.
Regarding `COc1cccc(NC(=O)c2cc(-c3ccc(/C=C4\C(=O)N(c5cccc(C#N)c5)N=C4C)o3)ccc2Cl)c1` [Compound 74, (Z)-2-chloro-5-(5-((1-(3-cyanophenyl)-3-methyl-5-oxo-1,5-dihydro-4H-pyrazol-4-ylidene)methyl)furan-2-yl)-N-(3-methoxyphenyl)benzamide], at Ku70/80, the IC50 was > 25 µM. Besides, at Ku70/80 (carboxylic acid replaced by nitrile), the “Ku inhibitory activity (qualitative)” value is reported as “complete abolition of Ku inhibitory activity”.
`CC1=NN(c2cccc(C(=O)O)c2)C(=O)/C1=C\c1ccc(-c2ccc(Cl)c(C(=O)NCC3CCCCC3)c2)o1` [Compound 39, (Z)-3-(4-((5-(4-Chloro-3-((cyclohexylmethyl)carbamoyl)phenyl)furan-2-yl)methylene)-3-methyl-5-oxo-4,5-dihydro-1H-pyrazol-1-yl)benzoic acid] showed an IC50 on Ku70/80 of 22.6 ± 4.4 µM.

By IC50 is commonly meant the concentration that inhibits the measured activity by half. A lower IC50 goes with greater potency in that assay.
